Drawing on patent publication US10272095B2 (GlaxoSmithKline Intellectual Property Development Limited, priority 2015, dated 2019), this text covers EC50 for 21 compounds.

Where a name gives a salt, the structure may show the parent alone. Some results are limits rather than exact numbers.

In the first assay the test system is NQO1 specific enzyme activity in BEAS-2B cells. Kind of assay: BEAS-2B NQO1 MTT assay. The assay is classed as cell-based. The settings on record: Homo sapiens, BEAS-2B, 48 h, NQO1 specific enzyme activity induction in BEAS-2B cells, 48 hours; read-out: EC50. From the text: NAD(P)H:quinone oxidoreductase 1 (NQO1), also called DT diaphorase, is a homodimeric FAD-containing enzyme that catalyzes obligatory NAD(P)H-dependent two-electron reductions of quinones and protects cells against the toxic and neoplastic effects of free radicals and reactive oxygen species arising from one-electron reductions. The transcription of NQO1 is finely regulated by NRF2, and thus NQO1 activity is a good marker for NRF2 activation. On day one, frozen BEAS-2B cells (ATCC) are thawed in a water bath, counted, and re-suspended at a concentration of 250,000 cells/mL. Fifty microliters of cells are plated in 384 well black clear-bottomed plates. Plates are incubated at 37° C., 5% CO2 overnight. On day two, plates are centrifuged and 50 nL of compound or controls are added to the cells. Plates are then incubated at 37° C., 5% CO2 for 48 hours. On day four, medium is aspirated from the plate and crude cell lysates are made by adding 13 uL of 1× Cell Signaling Technologies lysis buffer with 1 Complete, Mini, EDTA-free Protease Inhibitor Tablet (Roche) for each 10 mL of lysis buffer. After lysis plates are incubated for 20 minutes at room temperature. Two microliters of lysate are removed for use in Cell Titer Glo assay (Promega) and MTT cocktail is prepared (Prochaska et. al. 1998) for measurement of NQO1 activity. Fifty microliters of MTT cocktail is added to each well, plate is centrifuged, and analyzed on an Envision plate reader (Perkin Elmer) using Absorbance 570 nm label for 30 minutes. Product formation is measured kinetically and the pEC50 of NQO1 specific activity induction is calculated by plotting the change in absorbance (Delta OD/min) versus the log of compound concentration followed by 3-parameter fitting.
EC50s<1 nM (+++++), EC50s 10 nM-1 nM (++++), EC50s 10-100 nM (+++), EC50s 100 nM-1 uM (++), EC50s 1 uM-10 uM (+), EC50s>10 uM (−), or were not determined (ND).
(In general: Tetrazolium dyes change colour on reduction, which living cells bring about.)
As for `CC[C@@H]1CN([C@H]2CCc3ccc([C@H](CC(=O)O)c4ccc5c(nnn5C)c4C)cc32)Cc2ccccc2O1` (relative stereo) [Example 81, rel-(S)-3-(1,4-Dimethyl-1H-benzo[d][1,2,3]triazol-5-yl)-3-(rel-(S)-3-((R)-2-ethyl-2,3-dihydrobenzo[f][1,4]oxazepin-4(5H)-yl)-2,3-dihydro-1H-inden-5-yl)propanoic Acid], the EC50 was 10 to 100 nM.

For `CC[C@@H]1CN([C@@H]2CCc3ccc([C@H](CC(=O)O)c4ccc5c(nnn5C)c4C)cc32)Cc2ccccc2O1` (relative stereo) [Example 82, rel-(S)-3-(1,4-Dimethyl-1H-benzo[d][1,2,3]triazol-5-yl)-3-(rel-(R)-3-((R)-2-ethyl-2,3-dihydrobenzo[f][1,4]oxazepin-4(5H)-yl)-2,3-dihydro-1H-inden-5-yl)propanoic acid], the EC50 lay within 10 to 100 nM. Consider `CC[C@@H]1CN([C@@H]2CCc3ccc(C(CC(=O)O)c4ccc5c(nnn5C)c4C)cc32)Cc2ccccc2O1` (relative stereo) [Example 84, rel-(R)-3-(1,4-Dimethyl-1H-benzo[d][1,2,3]triazol-5-yl)-3-(rel-(R)-3-((R)-2-ethyl-2,3-dihydrobenzo[f][1,4]oxazepin-4(5H)-yl)-2,3-dihydro-1H-inden-5-yl)propanoic acid], for which the EC50 lay in the range of 1000 to 10000 nM.

On to `Cc1c([C@@H](CC(=O)O)c2ccc3c(c2)[C@H](N2Cc4ccccc4OC(C)(C)C2)CC3)ccc2c1nnn2C` (single isomer, unassigned) [Example 41, 3-(1,4-Dimethyl-1H-benzo[d][1,2,3]triazol-5-yl)-3-(3-(2,2-dimethyl-2,3-dihydrobenzo[f][1,4]oxazepin-4(5H)-yl)-2,3-dihydro-1H-inden-5-yl)propanoic Acid, Formic Acid Salt], for which the EC50 lay in the range of 1 to 10 nM. Take `Cc1c([C@H](c2ccc3c(c2)[C@H](N2Cc4ccccc4OC(C)(C)C2)CC3)C(C)(C)C(=O)O)ccc2c1nnn2C` (stereo in doubt) [Example 77, rel-(S)-3-(1,4-Dimethyl-1H-benzo[d][1,2,3]triazol-5-yl)-3-(rel-(R)-3-(2,2-dimethyl-2,3-dihydrobenzo[f][1,4]oxazepin-4(5H)-yl)-2,3-dihydro-1H-inden-5-yl)-2,2-dimethylpropanoic Acid]: the EC50 was less than 1 nM. Regarding `Cc1c([C@H](c2ccc3c(c2)[C@@H](N2Cc4ccccc4OC(C)(C)C2)CC3)C(C)(C)C(=O)O)ccc2c1nnn2C` (stereo in doubt) [Example 78, rel-(S)-3-(1,4-Dimethyl-1H-benzo[d][1,2,3]triazol-5-yl)-3-(rel-(S)-3-(2,2-dimethyl-2,3-dihydrobenzo[f][1,4]oxazepin-4(5H)-yl)-2,3-dihydro-1H-inden-5-yl)-2,2-dimethylpropanoic acid], the concentration giving a half-maximal response (EC50) fell in the range of 1 to 10 nM. Regarding `Cc1c([C@@H](c2ccc3c(c2)[C@H](N2Cc4ccccc4OC(C)(C)C2)CC3)C(C)(C)C(=O)O)ccc2c1nnn2C` (stereo in doubt) [Example 79, rel-(R)-3-(1,4-Dimethyl-1H-benzo[d][1,2,3]triazol-5-yl)-3-(rel-(R)-3(2,2-dimethyl-2,3-dihydrobenzo[f][1,4]oxazepin-4(5H)-yl)-2,3-dihydro-1H-inden-5-yl)-2,2-dimethylpropanoic acid], the EC50 lay in the range of 1 to 10 nM. Take `Cc1c([C@@H](c2ccc3c(c2)[C@@H](N2Cc4ccccc4OC(C)(C)C2)CC3)C(C)(C)C(=O)O)ccc2c1nnn2C` (stereo in doubt) [Example 80, rel-(R)-3-(1,4-Dimethyl-1H-benzo[d][1,2,3]triazol-5-yl)-3-(rel-(S)-3-(2,2-dimethyl-2,3-dihydrobenzo[f][1,4]oxazepin-4(5H)-yl)-2,3-dihydro-1H-inden-5-yl)-2,2-dimethylpropanoic acid]: the EC50 lay in the range of 100 to 1000 nM.

Consider `Cc1c(C(CC(=O)O)c2ccc3c(c2)[C@@H]2[C@@H](CC(=O)N2CC2CCCCC2)C3)ccc2c1nnn2C` (stereo partly drawn) [Example 1, 3-[(3aR,8bS)-1-(cyclohexylmethyl)-2-oxo-1H,2H,3H,3aH,4H,8bH-indeno[1,2-b]pyrrol-7-yl]-3-(1,4-dimethyl-1H-1,2,3-benzotriazol-5-yl)propanoic Acid], for which the 50% effective concentration (EC50) lay within 100 to 1000 nM.

`CCC1CCC(CN2C(=O)CC3Cc4ccc(C(CC(=O)O)c5ccc6c(nnn6C)c5C)cc4C32)CC1` (stereo not drawn) [Example 2, 3-(1,4-Dimethyl-1H-1,2,3-benzotriazol-5-yl)-3-{1-[(4-ethylcyclohexyl)methyl]-2-oxo-1H,2H,3H,3aH,4H,8bH-indeno[1,2-b]pyrrol-7-yl}propanoic Acid]: the EC50 fell in the range of 10 to 100 nM. `CCn1cc(CCC(CC(=O)O)c2ccc3c(c2)[C@@H]2[C@@H](CC(=O)N2CC2CCCCC2)C3)nn1` (stereo partly drawn) [Example 3, 3-[(3aR,8bS)-1-(cyclohexylmethyl)-2-oxo-1H,2H,3H,3aH,4H,8bH-indeno[1,2-b]pyrrol-7-yl]-5-(1-ethyl-1H-1,2,3-triazol-4-yl)pentanoic Acid]: the EC50 fell in the range of 1000 to 10000 nM. As for `Cc1c(C(CC(=O)O)c2ccc3c(c2)C2C(CC(=O)N2CC2CCC4CCCCC4C2)C3)ccc2c1nnn2C` (stereo not drawn) [Example 4, 3-[1-(Decahydronaphthalen-2-ylmethyl)-2-oxo-1H,2H,3H,3aH,4H,8bH-indeno[1,2-b]pyrrol-7-yl]-3-(1,4-dimethyl-1H-1,2,3-benzotriazol-5-yl)propanoic Acid], the EC50 was in the range of 10 to 100 nM. `CCCC1CCC(CN2C(=O)CC3Cc4ccc(C(CC(=O)O)c5ccc6c(nnn6C)c5C)cc4C32)CC1` (stereo not drawn) [Example 5, 3-(1,4-Dimethyl-1H-1,2,3-benzotriazol-5-yl)-3-{2-oxo-1-[(4-propylcyclohexyl)methyl]-1H,2H,3H,3aH,4H,8bH-indeno[1,2-b]pyrrol-7-yl}propanoic Acid]: the EC50 lay in the range of 1 to 10 nM. Turning to `Cc1c(C(CC(=O)O)c2ccc3c(c2)C2C(CCN2C(=O)OC(C)(C)C)C3)ccc2c1nnn2C` (stereo not drawn) [Example 6, 3-{1-[(tert-Butoxy)carbonyl]-1H,2H,3H,3aH,4H,8bH-indeno[1,2-b]pyrrol-7-yl}-3-(1,4-dimethyl-1H-1,2,3-benzotriazol-5-yl)propanoic Acid], the EC50 lay within 100 to 1000 nM. Still for that read-out and setting: the figure for `Cc1c(C(CC(=O)O)c2ccc3c(c2)C2C(CCN2C(=O)CC2CCCCC2)C3)ccc2c1nnn2C` (stereo not drawn) [Example 7, 3-[1-(2-Cyclohexylacetyl)-1H,2H,3H,3aH,4H,8bH-indeno[1,2-b]pyrrol-7-yl]-3-(1,4-dimethyl-1H-1,2,3-benzotriazol-5-yl)propanoic Acid] is 1000 to 10000 nM; for `Cc1c(C(CC(=O)O)c2ccc3c(c2)C2C(CCN2C(=O)C(C)c2ccccc2)C3)ccc2c1nnn2C` (stereo not drawn) [Example 9, 3-(1,4-Dimethyl-1H-1,2,3-benzotriazol-5-yl)-3-[1-(2-phenylpropanoyl)-1H,2H,3H,3aH,4H,8bH-indeno[1,2-b]pyrrol-7-yl]propanoic Acid] it is 1000 to 10000 nM; for `CCCC(C)C(=O)N1CCC2Cc3ccc(C(CC(=O)O)c4ccc5c(nnn5C)c4C)cc3C21` (stereo not drawn) [Example 10, 3-(1,4-Dimethyl-1H-1,2,3-benzotriazol-5-yl)-3-[1-(2-methylpentanoyl)-1H,2H,3H,3aH,4H,8bH-indeno[1,2-b]pyrrol-7-yl]propanoic Acid] it is 1000 to 10000 nM. Same read-out and setting: the figure for `Cc1c(C(CC(=O)O)c2ccc3c(c2)C2C(CCN2C(=O)Cc2ccccc2Cl)C3)ccc2c1nnn2C` (stereo not drawn) [Example 11, 3-{1-[2-(2-Chlorophenyl)acetyl]-1H,2H,3H,3aH,4H,8bH-indeno[1,2-b]pyrrol-7-yl}-3-(1,4-dimethyl-1H-1,2,3-benzotriazol-5-yl)propanoic Acid] is 1000 to 10000 nM; for `Cc1c(C(CC(=O)O)c2ccc3c(c2)C2C(CCN2C(=O)Cc2ccccc2C#N)C3)ccc2c1nnn2C` (stereo not drawn) [Example 12, 3-{1-[2-(2-Cyanophenyl)acetyl]-1H,2H,3H,3aH,4H,8bH-indeno[1,2-b]pyrrol-7-yl}-3-(1,4-dimethyl-1H-1,2,3-benzotriazol-5-yl)propanoic Acid] it is 1000 to 10000 nM.

The assay is the same for the next values; noted with them: NQO1 specific enzyme activity induction in BEAS-2B cells, 48 hours; read-out: EC50.
`CC[C@@H]1CN([C@H]2CCc3ccc([C@@H](c4ccc5c(nnn5C)c4C)C(C)(C)C(=O)O)cc32)Cc2cnccc2O1` (relative stereo) [Example 85, rel-(S)-3-(1,4-Dimethyl-1H-benzo[d][1,2,3]triazol-5-yl)-3-(rel-(S)-3-((R)-2-ethyl-2,3-dihydropyrido[3,4-f][1,4]oxazepin-4(5H)-yl)-2,3-dihydro-1H-inden-5-yl)-2,2-dimethylpropanoic Acid]: the EC50 lay within 10 to 100 nM. Still for that read-out and setting: the figure for `Cc1c(C(CC(=O)O)c2ccc3c(c2)C2C(CCN2C(=O)C(C)c2ccccc2)C3)ccc2c1nnn2C` (stereo not drawn) [Example 8, 3-(1,4-Dimethyl-1H-1,2,3-benzotriazol-5-yl)-3-[1-(2-phenylpropanoyl)-1H,2H,3H,3aH,4H,8bH-indeno[1,2-b]pyrrol-7-yl]propanoic Acid] is 1000 to 10000 nM.

A word on the EC50: it is the concentration that produces a half-maximal response.
